Converted amounts (≈) assume the structure as drawn. Where two headings read alike, the source gives them in different places.
Tests used:
Format in all cases: cell-based
Pseudomonas aeruginosa = experiment: MIC/MBC broth dilution, Pseudomonas aeruginosa patient isolates
Protocol: (§1) The Minimal inhibitory concentration (MIC) and the Minimal bactericidal concentration (MBC) have been tested against various bacteria including patient isolates and antibiotic resistant strains such as S. aureus ATCC 25923, E. coli ATCC 25922, P. aeruginosa ATCC 27853.
(§2) The bacteria were streaked on a nutrient agar plate to obtain a freshly isolated colony subsequently incubated overnight at 37° C. 4-5 isolated colonies were added into Mueller Hinton broth (MHB) solution, incubated for 4 hrs at 37° C. The turbidity was adjusted to the McFarland tube and the solution was diluted with MHB to 1:200.
(§3) The test solution was diluted with dimethyl sulfoxide (DMSO) and MHB in the ratio of 1:4 to get a final concentration of 512 μg/ml. 50 μl of MHB were added to each of twelve wells except the first well. Dilutions were made, mixed and the solutions were then incubated overnight at 37° C.
(§4) In order to determine the MBC, a loopful of each clear well was streaked onto a nutrient containing agar plate, which was subsequently incubated overnight at 37° C. The MBC was then determined as the lowest concentration which has shown no visible colony for each chemical.

Acinetobacter spp. = experiment: MIC/MBC broth dilution, Acinetobacter spp. patient isolates
Protocol: as §1, §2, §3, §4

P. aeruginosa ATCC 27853 = experiment: MIC/MBC broth dilution, P. aeruginosa ATCC 27853; conditions: Pseudomonas aeruginosa, ATCC27853; P. aeruginosa ATCC 27853, resistant strain (footnote 3)
Protocol: as §1, §2, §3, §4

S. aureus ATCC 25923 = experiment: MIC/MBC broth dilution, S. aureus ATCC 25923; conditions: Staphylococcus aureus, ATCC25923; S. aureus ATCC 25923, resistant strain (footnote 3)
Protocol: as §1, §2, §3, §4

Staphylococcus aureus = experiment: MIC/MBC broth dilution, Staphylococcus aureus patient isolates
Protocol: as §1, §2, §3, §4

Enterobacter spp. = experiment: MIC/MBC broth dilution, Enterobacter spp. patient isolates
Protocol: as §1, §2, §3, §4

E. coli ATCC 25922 = experiment: MIC/MBC broth dilution, E. coli ATCC 25922; conditions: Escherichia coli, ATCC25922; E. coli ATCC 25922, resistant strain (footnote 3)
Protocol: as §1, §2, §3, §4

Klebsiella pneumoniae = experiment: MIC/MBC broth dilution, Klebsiella pneumoniae patient isolates
Protocol: as §1, §2, §3, §4

[1] = tested on: various bacteria including patient isolates and antibiotic resistant strains; experiment: Antibacterial evaluation across all bacteria tested (summary of MIC/MBC)
Protocol: as §1, §2
The test solution was diluted with dimethyl sulfoxide (DMSO) and MHB in the ratio of 1:4 to get a final concentration of 512 μg/ml. 50 μl of MHB were added to each of twelve wells except the first well. […]
as §4
The first step in the evaluation was to determine the zone of inhibition on agar plates comparing the Example compounds with ampicillin and chloramphenicol as standards. Following this initial screening, the MIC/MBC was determined as previously described and the results are outlined in Table 1 for selected examples.

Escherichia coli = experiment: MIC/MBC broth dilution, Escherichia coli patient isolates
Protocol: as §1, §2, §3, §4

[2] = Enterobacter, patient isolate En1
[3] = patient isolates, isolate code not given (one value per isolate)
[4] = Acinetobacter, patient isolates, isolate code not given (one value per isolate), read-out: MIC
[5] = Enterobacter, patient isolates, isolate code not given (one value per isolate)

Compound `CN1C2=C(Cl)C(=O)OC21` (stereo not drawn) [Example 1, 4-chloro-6-methyl-2-oxa-6-azabicyclo[3.1.0]hex-4-en-3-one] has an MBC (Pseudomonas aeruginosa; patient isolate P7) of 64 µg/mL (≈ 440 µM), an MIC (Pseudomonas aeruginosa; patient isolate P7) of 32 µg/mL (≈ 220 µM) and an MBC (Pseudomonas aeruginosa; patient isolate P10) of 64 µg/mL (≈ 440 µM). It also gave an MIC (Pseudomonas aeruginosa; patient isolate P10) of 64 µg/mL (≈ 440 µM), an MBC (Pseudomonas aeruginosa; patient isolate P12) of 128 µg/mL (≈ 879 µM) and an MIC (Pseudomonas aeruginosa; patient isolate P12) of 128 µg/mL (≈ 879 µM). The MBC (Pseudomonas aeruginosa; patient isolate P13) was 64 µg/mL (≈ 440 µM), the MIC (Pseudomonas aeruginosa; patient isolate P13) was 32 µg/mL (≈ 220 µM) and the MBC (Pseudomonas aeruginosa; patient isolate P14) was 64 µg/mL (≈ 440 µM). The MIC (Pseudomonas aeruginosa; patient isolate P14) was 32 µg/mL (≈ 220 µM), the MBC (Pseudomonas aeruginosa; patient isolate P16) was 64 µg/mL (≈ 440 µM) and the MIC (Pseudomonas aeruginosa; patient isolate P16) was 32 µg/mL (≈ 220 µM). For the same compound, the MBC (Acinetobacter spp.; Acinetobacter, patient isolate A1, read-out: MBC) was 16 µg/mL (≈ 110 µM), the MIC (Acinetobacter spp.; Acinetobacter, patient isolate A1, read-out: MIC) was 8 µg/mL (≈ 55 µM) and the MBC (Acinetobacter spp.; Acinetobacter, patient isolate A2, read-out: MBC) was 64 µg/mL (≈ 440 µM). For the same compound, the MIC (Acinetobacter spp.; Acinetobacter, patient isolate A2, read-out: MIC) was 64 µg/mL (≈ 440 µM), the MBC (Acinetobacter spp.; Acinetobacter, patient isolate A3, read-out: MBC) was 32 µg/mL (≈ 220 µM) and the MIC (Acinetobacter spp.; Acinetobacter, patient isolate A3, read-out: MIC) was 16 µg/mL (≈ 110 µM). For the same compound, the MBC (Acinetobacter spp.; Acinetobacter, patient isolate A4, read-out: MBC) was 64 µg/mL (≈ 440 µM), the MIC (Acinetobacter spp.; Acinetobacter, patient isolate A4, read-out: MIC) was 64 µg/mL (≈ 440 µM) and the MBC (Acinetobacter spp.; Acinetobacter, patient isolate A5, read-out: MBC) was 32 µg/mL (≈ 220 µM). For the same compound, the MIC (Acinetobacter spp.; Acinetobacter, patient isolate A5, read-out: MIC) was 32 µg/mL (≈ 220 µM), the MBC (P. aeruginosa ATCC 27853) was 32 µg/mL (≈ 220 µM) and the MIC (P. aeruginosa ATCC 27853) was 32 µg/mL (≈ 220 µM). The MBC (S. aureus ATCC 25923) was 64 µg/mL (≈ 440 µM), the MIC (S. aureus ATCC 25923) was 16 µg/mL (≈ 110 µM) and the MBC (Staphylococcus aureus; patient isolate S1) was > 128 µg/mL. The MIC (Staphylococcus aureus; patient isolate S1) was 128 µg/mL (≈ 879 µM), the MBC (Staphylococcus aureus; patient isolate S2) was > 128 µg/mL and the MIC (Staphylococcus aureus; patient isolate S2) was 128 µg/mL (≈ 879 µM). For the same compound, the MBC (Staphylococcus aureus; patient isolate S3) was 128 µg/mL (≈ 879 µM), the MIC (Staphylococcus aureus; patient isolate S3) was 64 µg/mL (≈ 440 µM) and the MBC (Staphylococcus aureus; patient isolate S4) was > 128 µg/mL. It also gave an MIC (Staphylococcus aureus; patient isolate S4) of 64 µg/mL (≈ 440 µM), an MBC (Enterobacter spp.; [2]) of 64 µg/mL (≈ 440 µM) and an MIC (Enterobacter spp.; [2]) of 32 µg/mL (≈ 220 µM). It also gave an MBC (Enterobacter spp.; Enterobacter, patient isolate En3, read-out: MBC) of 32 µg/mL (≈ 220 µM), an MIC (Enterobacter spp.; Enterobacter, patient isolate En3, read-out: MIC) of 32 µg/mL (≈ 220 µM) and an MBC (Enterobacter spp.; Enterobacter, patient isolate En4, read-out: MBC) of 128 µg/mL (≈ 879 µM). The MIC (Enterobacter spp.; Enterobacter, patient isolate En4, read-out: MIC) was 64 µg/mL (≈ 440 µM), the MBC (Enterobacter spp.; Enterobacter, patient isolate En5, read-out: MBC) was 64 µg/mL (≈ 440 µM) and the MIC (Enterobacter spp.; Enterobacter, patient isolate En5, read-out: MIC) was 64 µg/mL (≈ 440 µM). For the same compound, the MBC (E. coli ATCC 25922) was 32 µg/mL (≈ 220 µM), the MIC (E. coli ATCC 25922) was 16 µg/mL (≈ 110 µM) and the MBC (Klebsiella pneumoniae; patient isolate K1) was 64 µg/mL (≈ 440 µM). For the same compound, the MIC (Klebsiella pneumoniae; patient isolate K1) was 64 µg/mL (≈ 440 µM), the MBC (Klebsiella pneumoniae; patient isolate K2) was 64 µg/mL (≈ 440 µM) and the MIC (Klebsiella pneumoniae; patient isolate K2) was 32 µg/mL (≈ 220 µM). For the same compound, the MBC (Klebsiella pneumoniae; patient isolate K3) was 32 µg/mL (≈ 220 µM), the MIC (Klebsiella pneumoniae; patient isolate K3) was 32 µg/mL (≈ 220 µM) and the MBC (Klebsiella pneumoniae; patient isolate K4) was 128 µg/mL (≈ 879 µM). For the same compound, the MIC (Klebsiella pneumoniae; patient isolate K4) was 128 µg/mL (≈ 879 µM), the MBC (Klebsiella pneumoniae; patient isolate K5) was 64 µg/mL (≈ 440 µM) and the MIC (Klebsiella pneumoniae; patient isolate K5) was 64 µg/mL (≈ 440 µM). For the same compound, the “MIC for antibiotic resistant strains compared with corresponding non-resistant isolates” value ([1]; resistant ATCC strains vs patient isolates) was “lower MIC for the antibiotic resistant strains than the corresponding non-resistant isolates”, the MBC (Escherichia coli; patient isolate E1) was 32 µg/mL (≈ 220 µM) and the MIC (Escherichia coli; patient isolate E1) was 32 µg/mL (≈ 220 µM). For the same compound, the MBC (Escherichia coli; patient isolate E2) was 64 µg/mL (≈ 440 µM), the MIC (Escherichia coli; patient isolate E2) was 64 µg/mL (≈ 440 µM) and the MBC (Escherichia coli; patient isolate E3) was 64 µg/mL (≈ 440 µM). The MIC (Escherichia coli; patient isolate E3) was 64 µg/mL (≈ 440 µM), the MBC (Escherichia coli; patient isolate E4) was 64 µg/mL (≈ 440 µM) and the MIC (Escherichia coli; patient isolate E4) was 32 µg/mL (≈ 220 µM). It also gave an MBC (Escherichia coli; patient isolate E5) of 64 µg/mL (≈ 440 µM) and an MIC (Escherichia coli; patient isolate E5) of 64 µg/mL (≈ 440 µM).

`O=C1OC2NC2=C1Cl` (stereo not drawn) [Example 3, 4-chloro-2-oxa-6-azabicyclo[3.1.0]hex-4-en-3-one] showed an MBC (Pseudomonas aeruginosa; [3]) of 128 µg/mL (≈ 973 µM), an MIC (Pseudomonas aeruginosa; [3]) of 128 µg/mL (≈ 973 µM) and an MIC (Acinetobacter spp.; [4]) of 32 µg/mL (≈ 243 µM). The MBC (P. aeruginosa ATCC 27853) was 128 µg/mL (≈ 973 µM), the MIC (P. aeruginosa ATCC 27853) was 128 µg/mL (≈ 973 µM) and the MBC (S. aureus ATCC 25923) was > 128 µg/mL. For the same compound, the MIC (S. aureus ATCC 25923) was 128 µg/mL (≈ 973 µM), the MBC (Staphylococcus aureus; [3]) was > 128 µg/mL and the MIC (Staphylococcus aureus; [3]) was 128 µg/mL (≈ 973 µM). It also gave an MBC (Enterobacter spp.; [5]) of 64 µg/mL (≈ 487 µM), an MIC (Enterobacter spp.; [5]) of 64 µg/mL (≈ 487 µM) and an MBC (E. coli ATCC 25922) of 128 µg/mL (≈ 973 µM). For the same compound, the MIC (E. coli ATCC 25922) was 128 µg/mL (≈ 973 µM), the MBC (Klebsiella pneumoniae; [3]) was 64 µg/mL (≈ 487 µM) and the MIC (Klebsiella pneumoniae; [3]) was 64 µg/mL (≈ 487 µM). The MBC (Escherichia coli; [3]) was 128 µg/mL (≈ 973 µM) and the MIC (Escherichia coli; [3]) was 64 µg/mL (≈ 487 µM).

Work on `O=C1OC2C(=C1Cl)N2Cc1ccccc1` (stereo not drawn) [Example 4, 4-chloro-6-benzyl-2-oxa-6-azabicyclo[3.1.0]hex-4-en-3-one] yielded an MBC (Acinetobacter spp.; Acinetobacter, patient isolates, isolate code not given (one value per isolate), read-out: MBC) of 8 µg/mL (≈ 36.1 µM), an MIC (Acinetobacter spp.; [4]) of 4 µg/mL (≈ 18 µM) and an MBC (Acinetobacter spp.; [3]) of 16 µg/mL (≈ 72.2 µM). For the same compound, the MIC (Acinetobacter spp.; [3]) was 8 µg/mL (≈ 36.1 µM), the MBC (P. aeruginosa ATCC 27853) was 32 µg/mL (≈ 144 µM) and the MIC (P. aeruginosa ATCC 27853) was 16 µg/mL (≈ 72.2 µM). The MBC (S. aureus ATCC 25923) was 8 µg/mL (≈ 36.1 µM), the MIC (S. aureus ATCC 25923) was 4 µg/mL (≈ 18 µM) and the MBC (Enterobacter spp.; [5]) was 16 µg/mL (≈ 72.2 µM). The MIC (Enterobacter spp.; [5]) was 8 µg/mL (≈ 36.1 µM), the MBC (Enterobacter spp.; [3]) was 32 µg/mL (≈ 144 µM) and the MIC (Enterobacter spp.; [3]) was 16 µg/mL (≈ 72.2 µM). For the same compound, the MBC (E. coli ATCC 25922) was 16 µg/mL (≈ 72.2 µM), the MIC (E. coli ATCC 25922) was 8 µg/mL (≈ 36.1 µM) and the “broad spectrum antibacterial activity” value ([1]; summary of Table 1) was “good broad spectrum activity”. For the same compound, the MBC (Escherichia coli; [3]) was 16 µg/mL (≈ 72.2 µM) and the MIC (Escherichia coli; [3]) was 16 µg/mL (≈ 72.2 µM).

— patent US20070043008A1, “Condensed Bicyclo[3.1.0] Hex-4-EN Derivatives Useful as Antibacterial Agents” (priority 2003, published 2007)
